Assay results published in patent US11957759B1, “Rapidly accelerated fibrosarcoma (RAF) degrading compounds and associated methods of use” (Arvinas Operations, Inc., priority 2022, dated 2024).

Legend:
B-RAF G466V = target: T1, B-RAF G466V (Homo sapiens, UniProt P15056, G466V); assay: Target protein degradation, assay D: T-Rex 293 cells, HA-BRAF_G466V, 384 well format; assay type: cell-based; conditions: T-Rex 293 HA-BRAF_G466V cells, 24 hours, Examples 83-269; for DC50: Assay D; for Dmax: T-REx-293, Assay D
T1 construct: expressed in transfected cells; host or cells: T-Rex 293 cells (Invitrogen #R71007)
T1 sequence (P15056 whole entry G466V): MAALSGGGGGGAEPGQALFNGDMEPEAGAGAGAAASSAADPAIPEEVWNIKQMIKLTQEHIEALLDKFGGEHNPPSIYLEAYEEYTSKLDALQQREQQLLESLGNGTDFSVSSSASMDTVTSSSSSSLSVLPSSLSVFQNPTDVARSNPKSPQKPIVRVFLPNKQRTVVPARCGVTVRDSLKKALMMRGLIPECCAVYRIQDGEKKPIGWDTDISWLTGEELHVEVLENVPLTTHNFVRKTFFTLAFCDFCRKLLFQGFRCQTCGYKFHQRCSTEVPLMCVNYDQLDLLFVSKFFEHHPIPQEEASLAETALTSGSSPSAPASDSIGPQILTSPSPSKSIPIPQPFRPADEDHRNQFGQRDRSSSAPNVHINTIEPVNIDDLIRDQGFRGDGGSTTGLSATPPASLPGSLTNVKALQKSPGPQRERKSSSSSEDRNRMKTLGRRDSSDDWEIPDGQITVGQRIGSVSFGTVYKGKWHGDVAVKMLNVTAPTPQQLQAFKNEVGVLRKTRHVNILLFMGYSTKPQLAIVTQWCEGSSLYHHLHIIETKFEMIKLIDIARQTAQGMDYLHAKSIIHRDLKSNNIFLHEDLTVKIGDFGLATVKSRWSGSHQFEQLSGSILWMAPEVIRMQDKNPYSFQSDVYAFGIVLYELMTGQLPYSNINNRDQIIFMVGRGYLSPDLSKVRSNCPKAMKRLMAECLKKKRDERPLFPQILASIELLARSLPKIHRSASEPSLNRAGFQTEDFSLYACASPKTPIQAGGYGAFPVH
Summary of the method: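 Degradation measured by high-content imaging of anti-HA immunofluorescence in fixed T-Rex 293 cells carrying inducible HA-BRAF G466V (1 ng/mL doxycycline), after 24 h PROTAC exposure at 37 °C over 300 nM–5 pM (1:3, 11 points, 0.5% DMSO). Outputs DC50 and Dmax as % of control; nuclei counts against DMSO wells gauge toxicity.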

B-RAF V600E = target: T2, B-RAF V600E (Homo sapiens, UniProt P15056, V600E); assay: Target protein degradation, assay C: T-Rex 293 cells, HA-BRAF_V600E, 384 well format; assay type: cell-based; conditions: T-Rex 293 HA-BRAF_V600E cells, 24 hours, Examples 83-269; for DC50: Assay C; for Dmax: T-REx-293, Assay C
T2 construct: expressed in transfected cells; host or cells: T-Rex 293 cells (Invitrogen #R71007)
T2 sequence (P15056 whole entry V600E): as the sequence (P15056 whole entry G466V) above, with V466G, V600E counted along it
Summary of the method: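 After 24 h exposure to an 11-point 1:3 series (300 nM–5 pM, 0.5% DMSO), fixed T-Rex 293 cells carrying HA-BRAF V600E (induced with 1 ng/mL doxycycline) were stained anti-HA and imaged. DC50 and Dmax were derived from BRAF intensity relative to control, and cytotoxicity from nuclear counts.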

SMILES	DC50 (B-RAF G466V) [µM]	Dmax (B-RAF G466V) [%]	DC50 (B-RAF V600E) [µM]	Dmax (B-RAF V600E) [%]
N#Cc1c(NS(=O)(=O)N2CC[C@@H](F)C2)ccc(F)c1Oc1ccc2ncn(-c3ccc(N4CCC(c5ccc6c(c5)C(=O)N(C5CCC(=O)NC5=O)C6=O)CC4)nc3)c(=O)c2c1 (stereo partly drawn) [Example 135, (3R)-N-(2-cyano-3-{[3-(6-{4-[2-(2,6-dioxopiperidin-3-yl)-1,3-dioxo-2,3-dihydro-1H-isoindol-5-yl]piperidin-1-yl}pyridin-3-yl)-4-oxo-3,4-dihydroquinazolin-6-yl]oxy}-4-fluorophenyl)-3-fluoropyrrolidine-1-sulfonamide]	> 0.03		> 0.5	
N#Cc1c(NS(=O)(=O)N2CC[C@@H](F)C2)ccc(F)c1Oc1ccc2ncn(-c3ccc(N4CCC(CN5CCC(Oc6cccc7c6C(=O)N(C6CCC(=O)NC6=O)C7=O)CC5)CC4)nc3)c(=O)c2c1 (stereo partly drawn) [Example 137, (3R)-N-(2-cyano-3-{[3-(6-{4-[(4-{[2-(2,6-dioxopiperidin-3-yl)-1,3-dioxo-2,3-dihydro-1H-isoindol-4-yl]oxy}piperidin-1-yl)methyl]piperidin-1-yl}pyridin-3-yl)-4-oxo-3,4-dihydroquinazolin-6-yl]oxy}-4-fluorophenyl)-3-fluoropyrrolidine-1-sulfonamide]	> 0.03	≤ 35	> 0.5	
COc1cc(N2CCN(c3ccc(-n4cnc5ccc(Oc6c(F)ccc(NS(=O)(=O)N7CC[C@@H](F)C7)c6C#N)cc5c4=O)cn3)CC2)cc2c1C(=O)N(C1CCC(=O)NC1=O)C2=O (stereo partly drawn) [Example 139, (3R)-N-(2-cyano-3-{[3-(6-{4-[2-(2,6-dioxopiperidin-3-yl)-7-methoxy-1,3-dioxo-2,3-dihydro-1H-isoindol-5-yl]piperazin-1-yl}pyridin-3-yl)-4-oxo-3,4-dihydroquinazolin-6-yl]oxy}-4-fluorophenyl)-3-fluoropyrrolidine-1-sulfonamide]	> 0.03		0.005 to 0.05	≤ 35
N#Cc1c(NS(=O)(=O)N2CC[C@@H](F)C2)ccc(F)c1Oc1ccc2ncn(-c3ccc(N4CCN(CC5CCN(c6ccc(F)c(C(=O)NC7CCC(=O)NC7=O)c6)CC5)CC4)nc3)c(=O)c2c1 (stereo partly drawn) [Example 140, 5-(4-{[4-(5-{6-[2-cyano-6-fluoro-3-({[(3R)-3-fluoropyrrolidin-1-yl]sulfonyl}amino)phenoxy]-4-oxo-3,4-dihydroquinazolin-3-yl}pyridin-2-yl)piperazin-1-yl]methyl}piperidin-1-yl)-N-(2,6-dioxopiperidin-3-yl)-2-fluorobenzamide]	> 0.03		0.05 to 0.5	≤ 35
COc1ccc(N2CCC(CN3CCN(c4ccc(-n5cnc6ccc(Oc7c(F)ccc(NS(=O)(=O)N8CC[C@@H](F)C8)c7C#N)cc6c5=O)cn4)CC3)CC2)cc1C(=O)NC1CCC(=O)NC1=O (stereo partly drawn) [Example 141, 5-(4-{[4-(5-{6-[2-cyano-6-fluoro-3-({[(3R)-3-fluoropyrrolidin-1-yl]sulfonyl}amino)phenoxy]-4-oxo-3,4-dihydroquinazolin-3-yl}pyridin-2-yl)piperazin-1-yl]methyl}piperidin-1-yl)-N-(2,6-dioxopiperidin-3-yl)-2-methoxybenzamide]	0.001 to 0.01	≤ 35	0.05 to 0.5	≤ 35
N#Cc1c(NS(=O)(=O)N2CC[C@@H](F)C2)ccc(F)c1Oc1ccc2ncn(-c3ccc(N4CCN(c5ccc6c(c5)CN(C5CCC(=O)NC5=O)C6=O)CC4)nc3)c(=O)c2c1 (some centres unmarked) [Example 143]	> 0.03		≤ 0.005	35 to 70
N#Cc1c(NS(=O)(=O)N2CC[C@@H](F)C2)ccc(F)c1Oc1ccc2ncn(-c3ccc(N4CCC(COCC5CCN(c6ccc7c(c6)C(=O)N(C6CCC(=O)NC6=O)C7=O)CC5)CC4)nc3)c(=O)c2c1 (stereo partly drawn) [Example 144, (3R)-N-(2-cyano-3-{[3-(6-{4-[{{1-[2-(2,6-dioxopiperidin-3-yl)-1,3-dioxo-2,3-dihydro-1H-isoindol-5-yl]piperidin-4-yl}methoxy)methyl]piperidin-1-yl}pyridin-3-yl)-4-oxo-3,4-dihydroquinazolin-6-yl]oxy}-4-fluorophenyl)-3-fluoropyrrolidine-1-sulfonamide]	0.01 to 0.03	≤ 35	0.005 to 0.05	≤ 35
N#Cc1c(NS(=O)(=O)N2CC[C@@H](F)C2)ccc(F)c1Oc1ccc2ncn(-c3ccc(N4CCC5(CCN(CC6CCN(c7ccc8c(c7)C(=O)N(C7CCC(=O)NC7=O)C8=O)CC6)CC5)CC4)nc3)c(=O)c2c1 (stereo partly drawn) [Example 145, (3R)-N-{2-cyano-3-[(3-{6-[9-({1-[2-(2,6-dioxopiperidin-3-yl)-1,3-dioxo-2,3-dihydro-1H-isoindol-5-yl]piperidin-4-yl}methyl)-3,9-diazaspiro[5.5]undecan-3-yl]pyridin-3-yl}-4-oxo-3,4-dihydroquinazolin-6-yl)oxy]-4-fluorophenyl}-3-fluoropyrrolidine-1-sulfonamide]	0.001 to 0.01	35 to 70	0.05 to 0.5	35 to 70

Second part, the compound after the results:

DC50 (B-RAF G466V) [µM]	Dmax (B-RAF G466V) [%]	DC50 (B-RAF V600E) [µM]	Dmax (B-RAF V600E) [%]	SMILES
≤ 0.001	35 to 70	0.05 to 0.5	35 to 70	N#Cc1c(NS(=O)(=O)N2CC[C@@H](F)C2)ccc(F)c1Oc1ccc2ncn(-c3cnc(N4CCC(CN5CC6(CCN(c7ccc8c(c7)CN(C7CCC(=O)NC7=O)C8=O)CC6)C5)CC4)nc3)c(=O)c2c1 (stereo partly drawn) [Example 132, (3R)-N-{2-cyano-3-[(3-{2-[4-({7-[2-(2,6-dioxopiperidin-3-yl)-1-oxo-2,3-dihydro-1H-isoindol-5-yl]-2,7-diazaspiro[3.5]nonan-2-yl}methyl)piperidin-1-yl]pyrimidin-5-yl}-4-oxo-3,4-dihydroquinazolin-6-yl)oxy]-4-fluorophenyl}-3-fluoropyrrolidine-1-sulfonamide]
0.001 to 0.01	35 to 70	0.05 to 0.5	35 to 70	N#Cc1c(NS(=O)(=O)N2CC[C@@H](F)C2)ccc(F)c1Oc1ccc2ncn(-c3cnc(N4CCC(CN5CC6(C5)CN(c5ccc7c(c5)C(=O)N(C5CCC(=O)NC5=O)C7=O)C6)CC4)nc3)c(=O)c2c1 (stereo partly drawn) [Example 133, (3R)-N-{2-cyano-3-[(3-{2-[4-({6-[2-(2,6-dioxopiperidin-3-yl)-1,3-dioxo-2,3-dihydro-1H-isoindol-5-yl]-2,6-diazaspiro[3.3]heptan-2-yl}methyl)piperidin-1-yl]pyrimidin-5-yl}-4-oxo-3,4-dihydroquinazolin-6-yl)oxy]-4-fluorophenyl}-3-fluoropyrrolidine-1-sulfonamide]
0.001 to 0.01	35 to 70	0.05 to 0.5	35 to 70	N#Cc1c(NS(=O)(=O)N2CC[C@@H](F)C2)ccc(F)c1Oc1ccc2ncn(-c3cnc(N4CC5(CN(CC6CCN(c7ccc8c(c7)C(=O)N(C7CCC(=O)NC7=O)C8=O)CC6)C5)C4)nc3)c(=O)c2c1 (stereo partly drawn) [Example 134, (3R)-N-{2-cyano-3-[(3-(2-[6-({1-[2-(2,6-dioxopiperidin-3-yl)-1,3-dioxo-2,3-dihydro-1H-isoindol-5-yl]piperidin-4-yl}methyl)-2,6-diazaspiro[3.3]heptan-2-yl]pyrimidin-5-yl}-4-oxo-3,4-dihydroquinazolin-6-yl)oxy]-4-fluorophenyl}-3-fluoropyrrolidine-1-sulfonamide]
0.001 to 0.01	35 to 70	0.005 to 0.05	≤ 35	N#Cc1c(NS(=O)(=O)N2CC[C@@H](F)C2)ccc(F)c1Oc1ccc2ncn(-c3ccc(N4CCC(c5ccc6c(c5)CN(C5CCC(=O)NC5=O)C6=O)CC4)nc3)c(=O)c2c1 (stereo partly drawn) [Example 136, (3R)-N-(2-cyano-3-{[3-(6-{4-[2-(2,6-dioxopiperidin-3-yl)-1-oxo-2,3-dihydro-1H-isoindol-5-yl]piperidin-1-yl}pyridin-3-yl)-4-oxo-3,4-dihydroquinazolin-6-yl]oxy}-4-fluorophenyl)-3-fluoropyrrolidine-1-sulfonamide]
0.001 to 0.01	≤ 35	0.05 to 0.5	≤ 35	COc1cc(N2CCN(CC3CCN(c4ccc(-n5cnc6ccc(Oc7c(F)ccc(NS(=O)(=O)N8CC[C@@H](F)C8)c7C#N)cc6c5=O)cn4)CC3)CC2)cc2c1C(=O)N(C1CCC(=O)NC1=O)C2=O (stereo partly drawn) [Example 138, (3R)-N-{2-cyano-3-[(3-{6-[4-({4-[2-(2,6-dioxopiperidin-3-yl)-7-methoxy-1,3-dioxo-2,3-dihydro-1H-isoindol-5-yl]piperazin-1-yl}methyl)piperidin-1-yl]pyridin-3-yl}-4-oxo-3,4-dihydroquinazolin-6-yl)oxy]-4-fluorophenyl}-3-fluoropyrrolidine-1-sulfonamide]
≤ 0.001	≤ 35	0.005 to 0.05	35 to 70	N#Cc1c(NS(=O)(=O)N2CC[C@@H](F)C2)ccc(F)c1Oc1ccc2ncn(-c3ccc(N4CCN(CC5CCN(c6ccc(N7CCC(=O)NC7=O)c(F)c6)CC5)CC4)nc3)c(=O)c2c1 [Example 142, (3R)-N-{2-cyano-3-[(3-{6-[4-({1-[4-(2,4-dioxo-1,3-diazinan-1-yl)-3-fluorophenyl]piperidin-4-yl}methyl)piperazin-1-yl]pyridin-3-yl}-4-oxo-3,4-dihydroquinazolin-6-yl)oxy]-4-fluorophenyl}-3-fluoropyrrolidine-1-sulfonamide]
